Tested on: SARS-COV-2 viral load in blood
Assay: Phase 1b severe COVID-19 study: quantitative SARS-COV-2 viral load in blood
Conditions: for Viral load in plasma: <1660 CP/ML SARS-COV2, number of participants / Viral load in plasma: <1660 CP/ML SARS-COV2, share of participants (in parentheses) / Viral load in plasma: INCONCLUSIVE, number of participants / Viral load in plasma: INCONCLUSIVE, share of participants (in parentheses) / Viral load in plasma: NO SARS-COV2 DETECTED, number of participants / Viral load in plasma: NO SARS-COV2 DETECTED, share of participants (in parentheses) / Viral load in plasma: POSITIVE RESULT, number of participants / Viral load in plasma: POSITIVE RESULT, share of participants (in parentheses): 600 mg (N = 41); for Viral load in plasma: Positive result, Mean / Viral load in plasma: Positive result, Median: 600 mg, participants with positive result
From the text: The clinical assessment in this study included both the assessment of clinical laboratory variables (CRP, laboratory markers of severe COVID-19 [D-Dimer, hematology parameters and thrombolytic therapy and vasopressor treatment]), oxygenation variables (saturated oxygen [SpO2], SpO2/fraction of inspired oxygen [FiO2] ratio), and clinical status variables (7-point clinical scale). The pharmacodynamic assessment included the measurement of peripheral biomarkers (pro-inflammatory cytokines and RIPK1 PD cytokines/chemokines), and optional measurement of viral load of SARS-CoV-2.
Exploratory clinical assessments endpoints included: • Change from baseline in ferritin and LDH at Day 7 and EOT • Proportion of participants per category of the 7-point clinical scale at EOT • Time to improvement by 2 points in category of 7-point clinical scale • Quantitative SARS-COV-2 viral load in blood at baseline and on Day 3, 5, 7 and EOT
Summary of quantitative measurement of SARS-COV-2 plasma viral load over time (at baseline, Day 3, 5, 7, and EOT) is provided in Table 28. An overall trend of decrease viral load and increased number of negative SARS-COV-2 tests were observed over time. Due to a high variability in the viral load values, no interpretation could be drawn for the effect of treatment on the viral load.

CN1C(=O)[C@@H](NC(=O)c2nnc(Cc3ccccc3)[nH]2)COc2cccnc21 [RIPK1 Inhibitor, (S)-5-benzyl-N-(5-methyl-4-oxo-2,3,4,5-tetrahydropyrido[3,2-b][1,4]oxazepin-3-yl)-4H-1,2,4-triazole-3-carboxamide]
Viral load in plasma: <1660 CP/ML SARS-COV2, number of participants (DAY 01 (baseline, predose)): 14
Viral load in plasma: <1660 CP/ML SARS-COV2, share of participants (in parentheses) (DAY 01 (baseline, predose)): (34.1)
Viral load in plasma: INCONCLUSIVE, number of participants (DAY 01 (baseline, predose)): 1
Viral load in plasma: INCONCLUSIVE, share of participants (in parentheses) (DAY 01 (baseline, predose)): (2.4)
Viral load in plasma: NO SARS-COV2 DETECTED, number of participants (DAY 01 (baseline, predose)): 11
Viral load in plasma: NO SARS-COV2 DETECTED, share of participants (in parentheses) (DAY 01 (baseline, predose)): (26.8)
Viral load in plasma: POSITIVE RESULT, number of participants (DAY 01 (baseline, predose)): 7
Viral load in plasma: POSITIVE RESULT, share of participants (in parentheses) (DAY 01 (baseline, predose)): (17.1)
Viral load in plasma: <1660 CP/ML SARS-COV2, number of participants (DAY 03): 12
Viral load in plasma: <1660 CP/ML SARS-COV2, share of participants (in parentheses) (DAY 03): (29.3)
Viral load in plasma: INCONCLUSIVE, number of participants (DAY 03): 2
Viral load in plasma: INCONCLUSIVE, share of participants (in parentheses) (DAY 03): (4.9)
Viral load in plasma: NO SARS-COV2 DETECTED, number of participants (DAY 03): 16
Viral load in plasma: NO SARS-COV2 DETECTED, share of participants (in parentheses) (DAY 03): (39.0)
Viral load in plasma: POSITIVE RESULT, number of participants (DAY 03): 4
Viral load in plasma: POSITIVE RESULT, share of participants (in parentheses) (DAY 03): (9.8)
Viral load in plasma: <1660 CP/ML SARS-COV2, number of participants (DAY 07): 1
Viral load in plasma: <1660 CP/ML SARS-COV2, share of participants (in parentheses) (DAY 07): (2.4)
Viral load in plasma: INCONCLUSIVE, number of participants (DAY 07): 2
Viral load in plasma: INCONCLUSIVE, share of participants (in parentheses) (DAY 07): (4.9)
Viral load in plasma: NO SARS-COV2 DETECTED, number of participants (DAY 07): 12
Viral load in plasma: NO SARS-COV2 DETECTED, share of participants (in parentheses) (DAY 07): (29.3)
Viral load in plasma: POSITIVE RESULT, number of participants (DAY 07): 1
Viral load in plasma: POSITIVE RESULT, share of participants (in parentheses) (DAY 07): (2.4)
Viral load in plasma: <1660 CP/ML SARS-COV2, number of participants (EOT): 4
Viral load in plasma: <1660 CP/ML SARS-COV2, share of participants (in parentheses) (EOT): (9.8)
Viral load in plasma: INCONCLUSIVE, number of participants (EOT): 1
Viral load in plasma: INCONCLUSIVE, share of participants (in parentheses) (EOT): (2.4)
Viral load in plasma: NO SARS-COV2 DETECTED, number of participants (EOT): 28
Viral load in plasma: NO SARS-COV2 DETECTED, share of participants (in parentheses) (EOT): (68.3)
Viral load in plasma: POSITIVE RESULT, number of participants (EOT): 0
Viral load in plasma: Positive result, Mean (DAY 01 (baseline, predose)): 30217.6 copies/mL
Viral load in plasma: Positive result, Median (DAY 01 (baseline, predose)): 7560.0 copies/mL
Viral load in plasma: Positive result, Mean (DAY 03): 7505.0 copies/mL
Viral load in plasma: Positive result, Median (DAY 03): 6332.5 copies/mL
Viral load in plasma: Positive result, Mean (DAY 07): 6240.0 copies/mL
Viral load in plasma: Positive result, Median (DAY 07): 6240.0 copies/mL

Reference: patent US20230233576A1, “ECLITASERTIB FOR USE IN TREATING CONDITIONS INVOLVING SYSTEMIC HYPERINFLAMMATORY RESPONSE” (priority 2020, published 2023)
